Like-named read-outs stand apart in the source and are kept apart here.
Legend:
[1] = values from Goodman & Gilman's (Baldessarini and Tarazi 2001) or other published medical sources, cited from earlier work
[2] = target: T1, rat 5-HT2A receptor tagged with EGFP (Rattus norvegicus, UniProt P14842); test: Internalization of GFP-tagged 5-HT2A receptor in SB1 cells (HEK293 stable line), confocal fluorescence microscopy; assay type: cell-based; details: drug applied for 10 mins, cycloheximide present
T1 construct: tagged at the C-terminus of the full-length rat 5-HT2A receptor (SR2-GFP); expressed in transfected cells; transiently transfected, differentiated N1E-115 cells (A2)
T1 sequence (P14842 whole entry): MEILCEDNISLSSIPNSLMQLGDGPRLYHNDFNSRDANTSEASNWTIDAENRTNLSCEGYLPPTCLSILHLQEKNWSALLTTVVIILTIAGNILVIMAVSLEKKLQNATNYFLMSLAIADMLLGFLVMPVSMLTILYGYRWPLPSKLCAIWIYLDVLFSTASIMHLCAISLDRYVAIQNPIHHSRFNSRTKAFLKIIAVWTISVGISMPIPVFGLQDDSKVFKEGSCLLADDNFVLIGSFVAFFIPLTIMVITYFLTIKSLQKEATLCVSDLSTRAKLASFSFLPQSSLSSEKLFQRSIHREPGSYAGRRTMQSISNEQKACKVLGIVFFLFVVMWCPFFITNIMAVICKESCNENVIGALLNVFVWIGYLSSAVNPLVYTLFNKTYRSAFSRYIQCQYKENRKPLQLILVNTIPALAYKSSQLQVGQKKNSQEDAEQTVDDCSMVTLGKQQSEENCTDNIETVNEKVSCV
Procedure: Generation of SR2-GFP receptor and HEK293 cells stably expressing SR2-GFP receptors: Enhanced green fluorescence protein (EGFP) had been tagged at the C-terminus of the full-length rat 5-HT2A receptor (SR2-GFP) and a stable line, SB-1, expressing fluorescent SR2-GFP receptors was established in the HEK293 cell line.
In order to study internalization of the 5-HT2A receptor in SB1 cells, cells were plated onto poly-DL-ornithine (20 μg/ml)—coated coverslip dishes and grown to 60-70% confluency. After 24 hrs in culture, cells were washed twice with serum free-DMEM to remove endogenous 5-HT present in serum. Protein synthesis was then blocked with cycloheximide at 100 μg/ml for 5 hrs to eliminate fluorescence from receptors being synthesized and present in the Golgi. […] Antipsychotics or an agonist such as serotonin (i.e. positive control) at the desired concentrations in DMEM were then applied for 10 mins. At the end of this period, cells were fixed in 4% paraformaldehyde in phosphate buffered saline (PBS) for 30 min, washed with PBS and imaged using a confocal microscope as described below.

[3] = target: T1, rat 5-HT2A receptor tagged with EGFP; test: Internalization of GFP-tagged 5-HT2A receptor in transiently transfected, differentiated N1E-115 neuronal cells, confocal fluorescence microscopy; assay type: cell-based; details: drug applied for 10 mins, cycloheximide present
Source text: A laser-scanning confocal microscope (Model MRC1024—BioRad) attached to a Nikon inverted microscope (Nikon eclipse TE300) and Lasersharp acquisition software were used in this case. A 60× oil immersion objective (NA=1.4) and 20× objective (NA=0.75) were used with laser power at 30% in all studies. […] Images were processed with Adobe Photoshop software using identical values for contrast and brightness. Typically 100-150 cells were randomly chosen and imaged in any one experiment and all experiments were repeated at least three times. In all experiments, cycloheximide was present until the cells were fixed. The number of cells that show internalized fluorescence and the pattern of fluoresence were estimated.
To study internalization of the 5-HT2A receptor in N1E-115 cells, undifferentiated N1E-115 cells grown on cover slip dishes cells were plated onto poly-DL-ornithine (20 μg/ml)—coated coverslip dishes and grown to 60-70% confluency. These cells were transfected with 2 μg of the SR2-GFP DNA mixed with 10 μg of lipofectamine in 1 ml OptiMEM media. 24 hrs after transfection, differentiation medium (1% DMSO+1% FBS+1% AB-AM mix in DMEM) was added in place of 10% DMEM. After 3 days, differentiated cells formed long neurites.

| Structure (SMILES) | Extrapyramidal side effects (EPS) [1] | Receptor internalization SB1 cells (pattern of internalization) [2] | Receptor internalization N1E-115 cells (pattern of internalization) [3] | further results |
| --- | --- | --- | --- | --- |
| CN1CCN(C2=Nc3ccccc3Oc3ccc(Cl)cc32)CC1 [Loxapine] | Moderate |  |  |  |
| OCCOCCN1CCN(C2=Nc3ccccc3Sc3ccccc32)CC1 [Quitapine] | Very low |  |  |  |
| Cc1cc2c(s1)Nc1ccccc1N=C2N1CCN(C)CC1 [Olanzapine] | Very low |  |  | Extrapyramidal side effects (EPS) ([1]; listed as olanzapine): negligible |
| OCCN1CCN(CC/C=C2/c3ccccc3Sc3ccc(Cl)cc32)CC1 [Zuclopenthixol] | Moderate | Type C | Type B |  |
| O=C(CCCN1CCC(O)(c2ccc(Cl)cc2)CC1)c1ccc(F)cc1 [Haloperidol] | Very high |  |  | Extrapyramidal side effects (EPS) ([1]; listed as haloperidol): severe |
| O=C1Cc2cc(CCN3CCN(c4nsc5ccccc45)CC3)c(Cl)cc2N1 [Ziprasidone] | Moderate | Type B | Type B |  |
| OCCN1CCN(CCCN2c3ccccc3Sc3ccc(C(F)(F)F)cc32)CC1 [Fluphenazine] | Very high |  |  | Extrapyramidal side effects (EPS) ([1]; listed as fluphenazine): severe |
| CN1CCN(C2=Nc3cc(Cl)ccc3Nc3ccccc32)CC1 [Clozapine] | Very low |  |  | Extrapyramidal side effects (EPS) ([1]; listed as clozapine): negligible |
| O=C1CCc2ccc(OCCCCN3CCN(c4cccc(Cl)c4Cl)CC3)cc2N1 [Aripiprazole] | Very low | Type A | Type A |  |
| Cc1nc2n(c(=O)c1CCN1CCC(c3noc4cc(F)ccc34)CC1)CCCC2 [Risperidone] | Moderate |  |  |  |
